From US8476197B2, “Aminopropenoates as fungicides” (priority 2009, dated 2013)
Marks after values point to notes of the source that are not given here.

Conditions: pH 2.7

Row | SMILES | Log P
1 | COC(=O)C(C#N)=C(NC(C)c1cccc(C)c1)c1cccnc1Cl (stereo not drawn) [Compound 396] | 3.02^[a]
2 | COC(=O)C(C#N)=C(NC(C)c1ccc(F)cc1)c1cccnc1Cl (stereo not drawn) [Compound 397] | 2.89^[a]
3 | COC(=O)C(C#N)=C(NC(c1ccccc1)C1CC1)c1cccnc1Cl (stereo not drawn) [Compound 398] | 3.24^[a]
4 | COC(=O)C(C#N)=C(NC(C)(C)c1ccc(F)cc1)c1cccnc1Cl [Compound 399] | 2.98^[a]
5 | COC(=O)C(C#N)=C(NC(C)c1ccc(OC)c(OC)c1)c1cccnc1Cl (stereo not drawn) [Compound 400] | 2.34^[a]
6 | COC(=O)C(C#N)=C(NC(C)c1cccc(C(F)(F)F)c1)c1cccnc1Cl (stereo not drawn) [Compound 401] | 3.28^[a]
7 | COC(=O)C(C#N)=C(NC(C)c1ccc2c(c1)OCO2)c1cccnc1Cl (stereo not drawn) [Compound 402] | 2.53^[a]
8 | COC(=O)C(C#N)=C(NC(C)c1cccc(Cl)c1)c1cccnc1Cl (stereo not drawn) [Compound 403] | 3.19^[a]
9 | COC(=O)C(C#N)=C(NC(C)c1ccccc1)c1cccnc1Cl (stereo not drawn) [Compound 404] | 2.89^[a]
10 | CCC(NC(=C(C#N)C(=O)OC)c1cccnc1Cl)c1ccccc1 (stereo not drawn) [Compound 405] | 3.02^[a]
11 | COC(=O)C(C#N)=C(NC(C)c1ccc(C(C)(C)C)cc1)c1cccnc1Cl (stereo not drawn) [Compound 406] | 4.23^[a]
12 | CCc1ccc(C(C)NC(=C(C#N)C(=O)OC)c2cccnc2Cl)cc1 (stereo not drawn) [Compound 407] | 3.63^[a]
13 | COC(=O)C(C#N)=C(NC(C)c1ccc(OC)cc1)c1cccnc1Cl (stereo not drawn) [Compound 408] | 2.65^[a]
14 | COC(=O)C(C#N)=C(NC(C)c1ccc(C)cc1)c1cccnc1Cl (stereo not drawn) [Compound 409] | 3.28^[a]
15 | CCOC(=O)C(C#N)=C(Nc1ccccc1SC)c1c(C)nn(C)c1Cl [Compound 410] | 3.42^[a]
16 | CCOC(=O)C(C#N)=C(NC(C)c1ccc(Cl)cc1)c1ccsc1Br (stereo not drawn) [Compound 411] | 4.35^[a]
17 | CCOC(=O)C(C#N)=C(Nc1ccccc1SC)c1ccsc1Br [Compound 412] | 3.99^[a]
18 | CCOC(=O)C(C#N)=C(Nc1ccccc1SC)c1cc(C)oc1C [Compound 414] | 3.84^[a]
19 | CCOC(=O)C(C#N)=C(Nc1ccccc1SC(F)(F)C(F)(F)F)c1cc(C)oc1C [Compound 415] | 4.7^[a]
20 | CCOC(=O)C(C#N)=C(Nc1ccccc1SCC(F)(F)F)c1cc(C)oc1C [Compound 416] | 4.3^[a]
21 | CCOC(=O)C(C#N)=C(Nc1ccccc1S(C)(=O)=O)c1cc(C)oc1C [Compound 417] | 2.65^[a]
22 | CCOC(=O)C(C#N)=C(Nc1ccccc1SC(F)(F)C(F)Cl)c1cc(C)oc1C (stereo not drawn) [Compound 418] | 4.25^[a]
23 | CCOC(=O)C(C#N)=C(Nc1ccccc1Sc1ccc(C)cc1)c1cc(C)oc1C [Compound 419] | 5.08^[a]
24 | C=CCSc1ccccc1NC(=C(C#N)C(=O)OCC)c1cc(C)oc1C [Compound 420] | 4.25^[a]
25 | CCOC(=O)C(C#N)=C(Nc1ccccc1SC(C)C)c1cc(C)oc1C [Compound 421] | 4.57^[a]
26 | CCOC(=O)C(C#N)=C(Nc1ccccc1Br)c1cc(C)oc1C [Compound 422] | 3.99^[a]
27 | COC(=O)C(C#N)=C(NC(C)Cc1ccccc1C)c1cccnc1Cl (stereo not drawn) [Compound 423] | 3.23^[a]
28 | COC(=O)C(C#N)=C(NC(C)CCc1ccccc1)c1cccnc1Cl (stereo not drawn) [Compound 424] | 3.27^[a]

Row | SMILES | Log P
29 | COC(=O)C(C#N)=C(NC(C)CCc1cccc(C)c1)c1cccnc1Cl (stereo not drawn) [Compound 425] | 3.68^[a]
30 | COC(=O)C(C#N)=C(NC(C)Cc1ccccc1)c1cccnc1Cl (stereo not drawn) [Compound 426] | 2.98^[a]
31 | COC(=O)C(C#N)=C(NC(C)c1ccc(Cl)cc1)c1sc(C)nc1C(F)(F)F (stereo not drawn) [Compound 427] | 3.98^[a]
32 | COC(=O)C(C#N)=C(Nc1ccccc1SC)c1sc(C)nc1C(F)(F)F [Compound 428] | 3.46^[a]
33 | CCOC(=O)C(C#N)=C(NC(C)c1ccc(Cl)cc1)c1cn(C)nc1C(F)(F)F (stereo not drawn) [Compound 430] | 3.95^[a]
34 | CCOC(=O)C(C#N)=C(Nc1ccccc1SC)c1cn(C)nc1C(F)(F)F [Compound 431] | 3.48^[a]
35 | CCOC(=O)C(C#N)=C(NC(C)c1ccc(Cl)cc1)c1sc(C)nc1C(F)(F)F (stereo not drawn) [Compound 433] | 4.27^[a]
36 | CCOC(=O)C(C#N)=C(Nc1ccccc1SC)c1ccsc1I [Compound 436] | 3.94^[a]
37 | CCOC(=O)C(C#N)=C(NCc1ccccc1SC)c1sccc1Br [Compound 458] | 4.01^[a]
38 | CCOC(=O)C(C#N)=C(NCc1ccccc1SC)c1sc(C)nc1C(F)(F)F [Compound 464] | 3.87^[a]
39 | COC(=O)C(C#N)=C(Nc1ccc2ncsc2c1)c1sc(C)nc1C(F)(F)F [Compound 465] | 2.64^[a]
40 | COC(=O)C(C#N)=C(NCc1ccccc1SC)c1sc(C)nc1C(F)(F)F [Compound 466] | 3.55^[a]
41 | CCOC(=O)C(C#N)=C(Nc1ccccc1OC(C)C)c1cn(C)nc1C(F)F [Compound 471] | 3.53^[a]
42 | CCOC(=O)C(C#N)=C(Nc1ccc(OC(F)F)cc1)c1cn(C)nc1C(F)F [Compound 472] | 3.04^[a]
43 | CCOC(=O)C(C#N)=C(Nc1ccc2ncsc2c1)c1cn(C)nc1C(F)F [Compound 473] | 2.44^[a]
44 | CCOC(=O)C(C#N)=C(Nc1ccc(SC)cc1)c1cn(C)nc1C(F)F [Compound 474] | 3.19^[a]
45 | CCOC(=O)C(C#N)=C(Nc1ccc(Cl)cc1)c1cn(C)nc1C(F)F [Compound 475] | 3.23^[a]
46 | CCOC(=O)C(C#N)=C(NCc1ccccc1SC)c1cn(C)nc1C(F)F [Compound 476] | 3.17^[a]
47 | CCOC(=O)C(C#N)=C(Nc1cccc(Cl)c1)c1cn(C)nc1C(F)F [Compound 477] | 3.21^[a]
48 | COC(=O)C(C#N)=C(Nc1ccc(C(C)C)cc1)c1sc(C)nc1C(F)(F)F [Compound 487] | 4.14^[a]
49 | CCOC(=O)C(C#N)=C(Nc1ccc(OC)cc1)c1cn(C)nc1C(F)F [Compound 495] | 2.77^[a]
50 | CCOC(=O)C(C#N)=C(Nc1ccc(N(C)C)cc1)c1cn(C)nc1C(F)F [Compound 496] | 2.71^[a]
51 | CCOC(=O)C(C#N)=C(Nc1ccc(C(C)C)cc1)c1cn(C)nc1C(F)F [Compound 497] | 3.76^[a]
52 | CCOC(=O)C(C#N)=C(Nc1cccc(SC)c1)c1cn(C)nc1C(F)F [Compound 498] | 3.17^[a]
53 | CCOC(=O)C(C#N)=C(Nc1ccccc1SC)c1cc(Cl)sc1Cl [Compound 500] | 4.59^[a]
54 | CCOC(=O)C(C#N)=C(NC1(c2c(F)cccc2F)CC1)c1cc(Cl)sc1Cl [Compound 501] | 4.62^[a]
55 | CCOC(=O)C(C#N)=C(Nc1ccccc1SC)c1nc(Cl)ccc1Cl [Compound 502] | 3.99^[a]

Second part, the compound after the results:

Row | Log P | SMILES
56 | 3.8^[a] | CCOC(=O)C(C#N)=C(Nc1ccccc1SC)c1sc(C)nc1C(F)(F)F [Compound 432]
57 | 4.4^[a] | CCOC(=O)C(C#N)=C(NC(C)c1ccc(Cl)cc1)c1sccc1Cl (stereo not drawn) [Compound 434]
58 | 3.92^[a] | CCOC(=O)C(C#N)=C(Nc1ccccc1SC)c1sccc1Cl [Compound 435]
59 | 4.56^[a] | CCOC(=O)C(C#N)=C(NC(C)CCc1ccccc1)c1sccc1C(F)(F)F (stereo not drawn) [Compound 437]
60 | 4.11^[a] | CCOC(=O)C(C#N)=C(Nc1ccc(Cl)cc1)c1sccc1Br [Compound 457]
61 | 4.09^[a] | CCOC(=O)C(C#N)=C(Nc1cccc(Cl)c1)c1sccc1Br [Compound 459]
62 | 4.54^[a] | CCOC(=O)C(C#N)=C(Nc1ccccc1OC(C)C)c1sccc1C(F)(F)F [Compound 460]
63 | 3.78^[a] | CCOC(=O)C(C#N)=C(Nc1ccc(OC(F)F)cc1)c1sccc1C(F)(F)F [Compound 461]
64 | 4.09^[a] | CCOC(=O)C(C#N)=C(Nc1ccc(SC)cc1)c1sccc1C(F)(F)F [Compound 462]
65 | 4.09^[a] | CCOC(=O)C(C#N)=C(NCc1ccccc1SC)c1sccc1C(F)(F)F [Compound 463]
66 | 4.46^[a] | CCOC(=O)C(C#N)=C(Nc1ccccc1OC(C)C)c1sccc1Br [Compound 467]
67 | 3.73^[a] | CCOC(=O)C(C#N)=C(Nc1ccc(OC(F)F)cc1)c1sccc1Br [Compound 468]
68 | 3.09^[a] | CCOC(=O)C(C#N)=C(Nc1ccc2ncsc2c1)c1sccc1Br [Compound 469]
69 | 4.01^[a] | CCOC(=O)C(C#N)=C(Nc1ccc(SC)cc1)c1sccc1Br [Compound 470]
70 | 2.98^[a] | CCOC(=O)C(C#N)=C(Nc1ccc2ncsc2c1)c1sc(C)nc1C(F)(F)F [Compound 479]
71 | 3.87^[a] | CCOC(=O)C(C#N)=C(Nc1ccc(SC)cc1)c1sc(C)nc1C(F)(F)F [Compound 480]
72 | 4.75^[a] | CCOC(=O)C(C#N)=C(Nc1ccc(C(C)C)cc1)c1sccc1C(F)(F)F [Compound 481]
73 | 4.04^[a] | CCOC(=O)C(C#N)=C(Nc1cccc(SC)c1)c1sccc1C(F)(F)F [Compound 482]
74 | 3.62^[a] | CCOC(=O)C(C#N)=C(Nc1ccc(OC)cc1)c1sccc1C(F)(F)F [Compound 483]
75 | 3.89^[a] | CCOC(=O)C(C#N)=C(Nc1ccc(N(C)C)cc1)c1sccc1C(F)(F)F [Compound 484]
76 | 3.06^[a] | COC(=O)C(C#N)=C(Nc1ccc(OC)cc1)c1sc(C)nc1C(F)(F)F [Compound 485]
77 | 3.31^[a] | COC(=O)C(C#N)=C(Nc1ccc(N(C)C)cc1)c1sc(C)nc1C(F)(F)F [Compound 486]
78 | 3.55^[a] | CCOC(=O)C(C#N)=C(Nc1ccc(OC)cc1)c1sccc1Br [Compound 488]
79 | 3.76^[a] | CCOC(=O)C(C#N)=C(Nc1ccc(N(C)C)cc1)c1sccc1Br [Compound 489]
80 | 4.73^[a] | CCOC(=O)C(C#N)=C(Nc1ccc(C(C)C)cc1)c1sccc1Br [Compound 490]
81 | 3.96^[a] | CCOC(=O)C(C#N)=C(Nc1cccc(SC)c1)c1sccc1Br [Compound 491]
82 | 3.44^[a] | CCOC(=O)C(C#N)=C(Nc1ccc(OC)cc1)c1sc(C)nc1C(F)(F)F [Compound 492]
83 | 3.71^[a] | CCOC(=O)C(C#N)=C(Nc1ccc(N(C)C)cc1)c1sc(C)nc1C(F)(F)F [Compound 493]
84 | 4.54^[a] | CCOC(=O)C(C#N)=C(Nc1ccc(C(C)C)cc1)c1sc(C)nc1C(F)(F)F [Compound 494]
